{
  "source": "patent US12714702B2",
  "about": "“Compositions and methods for treating or preventing pulmonary hypertension” (priority 2020, dated 2026)",
  "key": {"[1]": {"test_system": "primary human PASMCs", "experiment": "Caspase-3 assay (apoptotic induction)", "type": "cell-based", "details": "6-hour treatment, 5 and 10 μM, concentration-dependent", "experimental": "Caspase-3 level in SMC II cells was evaluated using EnzCheck™ Caspase-3 assay kit (ThermoFisher Scientific, Waltham, MA, USA) following the manufacturer's protocol. Briefly, upon 90% confluency, SMC II cells were harvested and seeded in 100 mm TC treated culture dishes at a density of 250,000 cells/well and allowed to adhere overnight. Following day, cells were treated with QA (5- and 10-μM) for 6 hours followed by harvesting. Harvested cells were lysed using a lysis buffer for 30 minutes on ice. The cells were centrifuged, and supernatant was used to analyze levels of a caspase-3 substrate aminomethylcoumarin (AMC)-derived substrate Z-DEVD-AMC (fluorescence measurement at 360 ex/460 em).\n(§1) An apoptotic induction assay, i.e., Caspase-3 assay was performed to understand QA's impact on cellular apoptosis in primary human PASMCs following 6-hour treatment. […] Moreover, another apoptotic induction assay, i.e., Annexin V FITC assay was also used to measure the effects of QA on serum-starved bovine PASMCs."}, "[2]": {"test_system": "p62, BMPR2, LC3B-II, p21, p65, phospho-AKT, phospho-p65 in right lung", "experiment": "SU5416/hypoxia model, western blot of right lung homogenate", "type": "in vivo, rat", "description": "FIGS. 18E-18F show western blot analysis of tissue (right lung) lysates for expression of various disease marker proteins including p62, BMPR2, LC3B-II, p21, p65, p53, phosphorylated-p53 and phosphorylated-AKT using corresponding monoclonal antibodies.\nThe accumulation of p62, a protein degraded by autophagy pathways, is indicative of autophagy inhibition."}, "[3]": {"test_system": "IL-6, Acta2, serpinel, Id3, BMPR2 mRNA", "experiment": "SU5416/hypoxia model, mRNA expression by real time PCR", "type": "in vivo, rat", "details": "SU5416/hypoxia rats"}, "[4]": {"test_system": "pulmonary arteries of MCT-induced PAH animals", "experiment": "MCT model, trichrome staining of lung sections and medial wall thickness", "type": "in vivo, rat", "details": "MCT rats", "description": "(§2) At the end of treatment period with QA, animals were sacrificed. Chest was surgically opened to expose rat lungs. Lung tissues were collected, and blinded tissues were sectioned by Reveal Bio (San Diego, CA) at 5 μm thickness. 2 tissue sections for each animal were earmarked for Trichrome staining; and 8 more sections were provided blank for custom staining.\n(§3) Tissue sections were stained using trichrome staining to visualize pulmonary arteries for all treatment and control groups. Stained lung sections were imaged using Zeiss Axio Scope A1 microscope equipped with Axiocam 506 color camera and Zeiss Zen 2.3 software. Medial wall thickness for similar sized pulmonary arteries was measured using a Motic BA210 microscope and measurements were made using Motic Image plus 2.0 software. Five pulmonary artery walls were analyzed per animal (n=2 to 5)\nAdditionally, lung tissue sections from the MCT-induced PAH lung tissue were examined using trichrome staining.\nMedial wall thickness of pulmonary arteries was measured using the trichrome stained microscopic images."}, "[5]": {"test_system": "serum-starved bovine PASMCs", "experiment": "Annexin V FITC assay (apoptotic induction)", "type": "cell-based", "details": "2.5 or 5 μM, 24 hours, concentration-dependent", "experimental": "(§4) In FIGS. 9A-9B, PASMC were serum starved for 24 hours, and then treated with varying QA concentrations in serum-starved media. Quantification was performed using Cyto-ID® autophagy kit and Annexin-V/FITC apoptosis kit. […] In FIG. 9C, autophagy inhibition by QA (5 μM) as depicted by increase in LC3B-II concentration in bovine high altitude PASMC quantified by western blot assay kit. Data represent mean±SD (n=3). *p<0.05.\nBovine PASMC were serum starved in FBS-free media for 24 hours, and then treated with QA for 24 hours at various concentrations (0, 2.5, or 5 μM). Annexin V levels were measured with Annexin V FITC assay kit (#600300, Cayman Chemical, Ann Arbor, MI) according to manufacturer's manual.\nas §1\nIn other independent experiments, QA's ability to modulate autophagy/apoptotic pathways was quantified in vitro in serum-starved bovine PASMC cells. Similar results were observed."}, "[6]": {"test_system": "LC3B-II in high-altitude bovine PASMCs", "experiment": "Autophagy inhibition assay (LC3B-II expression), western blot", "type": "cell-based", "details": "high altitude bovine PASMC cell lysate, QA 5 μM", "experimental": "as §4\nHigh-altitude bovine PASMCs were used to determine the effect of QA on LC3B-II, an autophagy marker, by western blotting (#3868S, LC3B (D11) XP Rabbit monoclonal antibody, Cell Signaling, Danvers, MA).\nAutophagy inhibition (lysosomal fusion with autophagosomes) by QA was examined. Bovine PASMCs were serum starved in FBS-free media for 24 hours, and then treated with QA (2.5 and 5 μM) for 24 hours. Autophagic inhibition was measured with Cyto-ID® autophagy detection kit. […] QA-induced autophagy inhibition by targeting LC3B-II expression was examined using HAPASMCs."}, "[7]": {"test_system": "Ki67, PCNA, vWF, α-SMA in SU5416/Hypoxia-induced PAH animal lung tissue", "experiment": "SU5416/hypoxia model, immunofluorescence of lung tissue", "type": "in vivo, rat", "details": "SU5416/hypoxia rats", "experimental": "Preclinical in-vivo studies for QA were earlier performed at a dose of 10 mg/kg once-a-day in a SU5416/Hypoxia-induced preventative/prophylactic PAH model. Hemodynamic parameters were collected and lung tissues were also collected and were sectioned for visualizing the impact of QA treatment on various PAH biomarkers in-vivo.\nParaffin embedded tissue sections for control animals, hypoxia induced PAH animals and QA treated animals were further subjected to immunofluorescent staining to analyze expression levels of essential molecular markers. Deparaffinization of tissues was done by exposing tissue sections to a solution of xylene for 3 minutes twice followed by washing with 200 proof absolute 99.8% ethanol and 50% ethanol. Tissues were further washed with 1×PBS twice to ensure complete deparaffinization. Similar protocol was followed hereon for immunofluorescent staining of tissue sections."}, "[8]": {"target": "ITCH/AIP4 E3 ligase (Homo sapiens, UniProt Q96J02)", "sequence (Q96J02 whole entry)": "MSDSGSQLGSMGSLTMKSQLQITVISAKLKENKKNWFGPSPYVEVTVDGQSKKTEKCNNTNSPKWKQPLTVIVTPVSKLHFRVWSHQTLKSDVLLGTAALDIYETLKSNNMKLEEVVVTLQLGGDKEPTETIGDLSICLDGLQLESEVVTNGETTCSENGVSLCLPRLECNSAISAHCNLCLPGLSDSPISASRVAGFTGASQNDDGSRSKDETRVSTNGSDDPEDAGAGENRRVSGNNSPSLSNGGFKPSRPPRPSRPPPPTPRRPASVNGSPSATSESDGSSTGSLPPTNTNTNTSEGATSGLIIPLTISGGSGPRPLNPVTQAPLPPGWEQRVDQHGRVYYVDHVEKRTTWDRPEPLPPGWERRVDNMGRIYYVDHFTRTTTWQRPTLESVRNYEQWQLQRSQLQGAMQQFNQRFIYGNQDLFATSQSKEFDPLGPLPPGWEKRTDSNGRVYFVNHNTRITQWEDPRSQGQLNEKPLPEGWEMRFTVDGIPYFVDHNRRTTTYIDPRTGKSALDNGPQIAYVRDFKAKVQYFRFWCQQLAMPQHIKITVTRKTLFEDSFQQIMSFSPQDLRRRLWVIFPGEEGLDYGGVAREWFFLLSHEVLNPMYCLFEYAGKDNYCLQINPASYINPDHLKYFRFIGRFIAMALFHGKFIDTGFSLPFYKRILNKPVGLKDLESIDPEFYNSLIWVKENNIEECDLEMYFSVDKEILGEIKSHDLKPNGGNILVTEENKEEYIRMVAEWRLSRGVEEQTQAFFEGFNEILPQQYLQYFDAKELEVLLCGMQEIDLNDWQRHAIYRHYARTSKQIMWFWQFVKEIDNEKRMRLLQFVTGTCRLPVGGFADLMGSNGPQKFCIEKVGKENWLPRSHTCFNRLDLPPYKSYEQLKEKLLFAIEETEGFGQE", "experiment": "ITCH/AIP4 E3 ligand activity assay, ubiquitin ELISA (UbiQuant)", "type": "biochemical", "details": "20 μM dose", "experimental": "The ligand activity inhibition by QA at multiple concentrations (0, 10, or 20 μM) in presence of ubiquitin was quantified."}, "[9]": {"test_system": "pulmonary arterioles of SU5416/hypoxia-induced PAH animals", "experiment": "SU5416/hypoxia model, muscularization, trichrome staining and medial wall thickness", "type": "in vivo, rat", "experimental": "Adult male rats were injected with SU5416 (20 mg/kg) subcutaneously and were kept under hypoxia (10% O2) for 3 weeks. QA was administered once-a-day intraperitoneally at a dose of 10 mg/kg for 21 days starting from Day 1. […] Data represent mean±SD (n=4-5). *p<0.05.\nas §2, §3\nAfter 3 weeks, hemodynamic studies were performed."}},
  "data": [
    {"smiles": "CCN(CC)CCCC(C)Nc1c2ccc(Cl)cc2nc2ccc(OC)cc12", "note": "(centres unmarked) [QA, quinacrine]", "values": [
      {"measurement": "caspase-3 levels", "setting": "[1]", "value": "increased caspase-3 levels"},
      {"measurement": "autophagy marker LC3B-II", "setting": "[2]; right lung homogenate", "value": "accumulated"},
      {"measurement": "autophagy marker p62", "setting": "[2]; right lung homogenate", "value": "accumulated"},
      {"measurement": "accumulation of BMPR2", "setting": "[2]; right lung homogenate, in comparison to control animals", "value": "> 2", "unit": "fold"},
      {"measurement": "expression of p21 protein", "setting": "[2]; tissue lysates", "value": "significant increase"},
      {"measurement": "expression of phospho-AKT", "setting": "[2]; tissue lysates", "value": "decreased"},
      {"measurement": "expression of phospho-p65", "setting": "[2]; tissue lysates", "value": "decreased"},
      {"measurement": "p65", "setting": "[2]; tissue lysates", "value": "significant reduction"},
      {"measurement": "BMPR2 mRNA expression", "setting": "[3]", "value": "no significant changes"},
      {"measurement": "Acta2 gene (smooth muscle actin-alpha) expression", "setting": "[3]; real time PCR", "value": "decreased"},
      {"measurement": "IL-6 mRNA levels", "setting": "[3]; real time PCR", "value": "decreased"},
      {"measurement": "Id3 mRNA level", "setting": "[3]; real time PCR", "value": "did not significantly change"},
      {"measurement": "mRNA levels of serpinel", "setting": "[3]; real time PCR", "value": "reduced"},
      {"measurement": "medial wall thickness of pulmonary arteries", "setting": "[4]; compared to sham control animals", "value": "back to almost normal"},
      {"measurement": "collagen and muscular deposition in pulmonary arterioles", "setting": "[4]; trichrome staining", "value": "significant reduction"},
      {"measurement": "apoptotic induction (fluorescence intensity of Annexin-V stained cells)", "setting": "[5]", "value": "significantly enhanced apoptotic induction"},
      {"measurement": "increase in LC3B-II expression", "setting": "[6]", "value": "> 2", "unit": "fold"},
      {"measurement": "expression of Ki67", "setting": "[7]", "value": "reduction in expression"},
      {"measurement": "expression of PCNA", "setting": "[7]", "value": "reduction in expression"},
      {"measurement": "expression of vWF", "setting": "[7]", "value": "did not show any reduction in expression"},
      {"measurement": "expression of α-SMA", "setting": "[7]", "value": "did not show any reduction in expression"},
      {"measurement": "reduction in total polyubiquitination resulting from ITCH/AIP4 activity", "setting": "[8]", "value": "~ 25%"},
      {"measurement": "medial wall thickness in pulmonary arterioles", "setting": "[9]; SU5416/hypoxia rats (FIG. 14D)", "value": "significant reduction"},
      {"measurement": "vessel muscularization (less completely muscularized blood vessels than control)", "setting": "[9]; SU5416/hypoxia rats, pulmonary arterioles", "value": 3.5, "unit": "folds"},
      {"measurement": "collagen and muscular deposition in pulmonary arterioles", "setting": "[9]; SU5416/hypoxia rats, trichrome staining", "value": "significant reduction"},
      {"measurement": "reduction in medial wall thickness of pulmonary arteries", "setting": "[9]; compared to SU5416/hypoxia-induced PAH animal tissue sections (FIG. 16)", "value": "about 2 fold"}
    ]}
  ]
}
